Assay results: US5470852A, “Tetrahydroprotoberberine quaternary ammonium compounds useful in for treating arrhythmia” (priority 1991, dated 1995)

Assays:
[1] = system: hypertrophic rat heart; assay: Reperfusion-induced VF and VT in hypertrophic rat heart (L-thyroxine); assay type: in vivo
Procedure: 4. In the model of hypertrophic rat heart muscle disease caused by long term injections of L-thyroxine, high incidence of VF has been induced in vitro and in vivo when compared with the control after low perfusion-reperfusion or ischemia-reperfusion protocol. […] (shown in Tab 6)
Effect of I13 (100 mg/kg, ig administration at 1 hour before experiment)
on reperfusion-induced VF and VT in hypertrophic rat heart, a
myopathy induced by injecting L-thyroxin

[2] = system: pathological papillary muscles in rats (cardiomyopathy); assay: Action potential in papillary muscles of rats with cardiomyopathy (L-thyrotoxin); assay type: cell-based, rat
Excerpt: Effect of I13 (μ mol/L) on estimates of action potential induced in
normal and pathological papillary muscles in rats.

[3] = system: rabbits; assay: APD 24 hours after AMI in rabbits; assay type: in vivo, rabbit
Procedure: 24 hours after AMI, APD is markedly shortened.

[4] = 100 mg/kg ig 1 hour before, n=10
[5] = cardiomyopathy, n=5, I13 concentration not given

For COc1ccc2c(c1OC)C[N+]1(Cc3ccc(Cl)cc3)CCc3cc4c(cc3C1C2)OCO4 (centres unmarked) [Compound I13, 7-(4-chlorobenzyl)-5,8,13,13a-tetrahydroberberine chloride], the “Duration of VF” value [1, 4] was 2.0 ± 3.0 min, the “Duration of VT” value [1, 4] was 0.4 ± 0.8 min and the “Incidence of VF” value [1, 4] was 30%. The “Incidence of VT” value [1, 4] was 20%, the “inhibition of incidence of VF and VT” value ([1]; p.o. 100 mg/kg one hour prior to ischemia) was “clearly inhibited the incidence of VF and VT” and the “Vmax in cardiomyopathy model” value ([2]; L-thyrotoxin, rats) was “completely inhibited”. It also gave an APA [2, 5] of 104 ± 7 mv, an APD20 [2, 5] of 12 ± 3 ms and an APD50 [2, 5] of 32 ± 4 ms. It also gave an APD90 [2, 5] of 65 ± 5 ms, an ERP [2, 5] of 66 ± 6 ms and an RP [2, 5] of 81 ± 5 mv. The Vmax [2, 5] was 160 ± 50 v/s and the “effect on APD shortening after AMI” value [3] was “could be cancelled”.
